Data set [1] deals with MIA PaCa-2. As to the kind of experiment: Antiproliferative activity against human MIA PaCa-2 cells assessed as cell viability measured after 168 hrs incubation by SRB assay. In kind it is functional, cell-based. As to conditions: MIA PaCa-2, 168 h. A general note: In SRB staining, fixed cells bind dye roughly in proportion to their protein.
Data set [2] relates to MIA PaCa-2. As to the kind of experiment: Down-regulation of CytB gene expression in human MIA PaCa-2 cells at 0.1 to 1 uM measured after 12 hrs by RT-qPCR analysis. In kind it is functional, cell-based. The settings on record: dose 0.1-1 µM. On the technique in general: In qPCR the cycle at which signal appears reflects the starting amount.
Data set [3] deals with MIA PaCa-2. Put plainly: Reduction of protein complexes of mitochondrial electron transport chain in human MIA PaCa-2 cells reduction in MTCO1 protein level by Western blot analysis. Format: functional, cell-based. As to conditions: dose 0.001-5 µM. (In general: In western blotting, separated proteins are transferred to a membrane and probed.)
Data set [4] concerns MIA PaCa-2. Put plainly: Inhibition of colony formation in human MIA PaCa-2 cells at 5 to 200 nM incubated for 14 days by crystal violet staining based assay. Format: functional, cell-based. As to conditions: dose 5-200 nM, time 14.0 day.
Data set [5] relates to MIA PaCa-2. Put plainly: Induction of cell arrest in human MIA PaCa-2 cells assessed as accumulation of cells at S phase at 100 nM measured after 96 hrs by PI staining based flow cytometry (reference value: 16.8%). In kind it is functional.
The test system of data set [6] is MIA PaCa-2. As to the kind of experiment: Induction of cell arrest in human MIA PaCa-2 cells assessed as accumulation of cells at G2 phase at 100 nM measured after 96 hrs by PI staining based flow cytometry (reference value: 11.2%). Format: functional.
Data set [7] relates to MIA PaCa-2. Put plainly: Induction of cell arrest in human MIA PaCa-2 cells assessed as accumulation of cells at G1 phase at 200 nM measured after 96 hrs by PI staining based flow cytometry (reference value: 64%). In kind it is functional.
Data set [8] has as its system MIA PaCa-2. As to the kind of experiment: Induction of cell arrest in human MIA PaCa-2 cells assessed as early apoptotic cells at 100 nM measured after 4 days by Annexin V-FITC and propidium iodide (PI) staining based assay (reference value: 1.07%). In kind it is functional. As to conditions: time 4 day.
In data set [9] the test system is MIA PaCa-2. As to the kind of experiment: Induction of cell arrest in human MIA PaCa-2 cells assessed as early apoptotic cells at 200 nM measured after 4 days by Annexin V-FITC and propidium iodide (PI) staining based assay (reference value: 1.07%). Format: functional. The settings on record: time 4 day.
Data set [10] relates to MIA PaCa-2. Put plainly: Reduction in maximal oxygen consumption rate (OCR) in human MIA PaCa-2 cells incubated for 168 hrs. Format: functional, cell-based. The settings on record: dose 1-200 nM.
The test system of data set [11] is MIA PaCa-2. As to the kind of experiment: Effect on extracellular acidification rate (ECAR) in human MIA PaCa-2 cells at 1 to 200 nM incubated for 168 hrs. In kind it is functional, cell-based. The settings on record: dose 1-200 nM.
The test system of data set [12] is MIA PaCa-2. Put plainly: Reduction in number of mitochondria in human MIA PaCa-2 cells measured after 96 hrs by Mito-Tracker Green and DAPI staining based assay. Format: functional, cell-based. As to conditions: dose 10-1000 nM.
A short description of data set [13]: Antiproliferative activity against HUVEC cells assessed as cell viability measured after 168 hrs incubation by SRB assay. The settings on record: human. In kind it is toxicity, cell-based.
The nature of data set [14]: Toxicity in BALB/c mouse xenografted with human MIA PaCa-2 cells assessed as change in body weight at 25 to 100 mg/kg, iv once daily for 25 consecutive day after 2 weeks of cells injection. As to conditions: in vivo, 600 h, dose 25-100 mg/kg, time 25 day. In kind it is organism-based.
Data set [15] deals with MIA PaCa-2. Put plainly: Induction of apoptosis in human MIA PaCa-2 cells xenografted in BALB/c mouse at 25 to 100 mg/kg, iv once daily for 25 consecutive day after 2 weeks of cells injection by TUNEL staining based analysis. In kind it is functional, organism-based. The settings on record: dose 25-100 mg/kg.

Active and inactive are the calls of the source. The rule behind the calls is not given here. Bounds are passed on as bounds.

For orientation: IC50 means the point on the concentration scale where inhibition reaches its midpoint.

Take `CCN(CC)C(=O)[C@@H](C)Oc1cc2oc(=O)cc(-c3ccccc3C)c2cc1F`: in the data set with MIA PaCa-2 [1], the IC50 was 5 nM. Moreover, the outcome in the data set on MIA PaCa-2 [2] was Active. For the same compound, the Activity entry is “Dose-Dependent Effect” with MIA PaCa-2 [3]; 16.7% with MIA PaCa-2 [5]; 11.3% in the data set on MIA PaCa-2 [6]; 62.4% in the data set on MIA PaCa-2 [7]; 0.57% with MIA PaCa-2 [8]; 1.06% in the data set with MIA PaCa-2 [9]. Also, the results for the Activity result (with MIA PaCa-2 [10]; with MIA PaCa-2 [12]; in data set [14]) were “Dose-Dependent Effect”, “Dose-Dependent Effect” and “Non-Toxic”, respectively. Besides, the inhibition result with MIA PaCa-2 [4] is “Active”. Moreover, the outcome with MIA PaCa-2 [11] and with MIA PaCa-2 [15] was inactive. Besides, the concentration for half-maximal inhibition (IC50) at 168 h in data set [13] was greater than 50000 nM.
